Reference: PMC11217349, “Development of Nurr1 agonists from amodiaquine by scaffold hopping and fragment growing” (Communications Chemistry, 2024)
“And” between values parts separate entries of the source, which are not always exact repeats. Identical values can stand only once. “Also recorded” adds a separate entry of the source. Like-named read-outs stand apart in the source and are kept apart here.

Key:
[1] = system: Nurr1-regulated TH, VMAT2 and SOD2 mRNA in astrocytes (T98G); test: Nurr1-regulated gene expression in T98G astrocytes (qPCR); assay type: cell-based, human; conditions: vs DMSO control
Nurr1 LBD = molecular target: T1, Nurr1 LBD (Homo sapiens, UniProt P43354); test: Isothermal titration calorimetry (ITC); assay type: binding; conditions: 25 °C
T1 construct: Nurr1 LBD protein (5–30 µM, expressed as described previously[21]); made in house
T1 sequence (P43354 360-595 limits assumed): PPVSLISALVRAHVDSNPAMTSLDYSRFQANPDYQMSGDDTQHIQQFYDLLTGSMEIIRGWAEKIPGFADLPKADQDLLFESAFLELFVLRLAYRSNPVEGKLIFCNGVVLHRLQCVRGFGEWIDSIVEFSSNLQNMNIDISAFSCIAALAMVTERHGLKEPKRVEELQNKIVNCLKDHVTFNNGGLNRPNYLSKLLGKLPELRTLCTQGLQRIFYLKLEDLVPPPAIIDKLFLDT
Method: ITC experiments were conducted on an Affinity ITC instrument (TA Instruments, New Castle, DE) at 25 °C with a stirring rate of 75 rpm. Nurr1 LBD protein (5–30 µM, expressed as described previously[21]) in buffer (20 mM Tris pH 7.5, 100 mM NaCl, 5% glycerol) containing 1–4% DMSO was titrated with the test compounds (30–150 μM in the same buffer containing 1-4% DMSO) in 26 injections (1 × 1 µL, 25 × 3-4 μL) with an injection interval of 120-150 s. As control experiments, the test compounds were titrated to the buffer, and the buffer was titrated to the Nurr1 LBD protein under otherwise identical conditions. Results were analyzed using NanoAnalyze software (version 3.11.0, TA Instruments, New Castle, DE) with independent binding models.

[2] = molecular target: T2, Nurr1-RXR heterodimer (DR5) (Homo sapiens, UniProt P43354); test: Full-length Nurr1 reporter gene assay (DR5); assay type: cell-based
T2 construct: The full-length human nuclear receptor Nurr1 (pcDNA3.1-hNurr1-NE; Addgene plasmid #102363); host or cells: HEK293T
T2 sequence (P43354 whole entry): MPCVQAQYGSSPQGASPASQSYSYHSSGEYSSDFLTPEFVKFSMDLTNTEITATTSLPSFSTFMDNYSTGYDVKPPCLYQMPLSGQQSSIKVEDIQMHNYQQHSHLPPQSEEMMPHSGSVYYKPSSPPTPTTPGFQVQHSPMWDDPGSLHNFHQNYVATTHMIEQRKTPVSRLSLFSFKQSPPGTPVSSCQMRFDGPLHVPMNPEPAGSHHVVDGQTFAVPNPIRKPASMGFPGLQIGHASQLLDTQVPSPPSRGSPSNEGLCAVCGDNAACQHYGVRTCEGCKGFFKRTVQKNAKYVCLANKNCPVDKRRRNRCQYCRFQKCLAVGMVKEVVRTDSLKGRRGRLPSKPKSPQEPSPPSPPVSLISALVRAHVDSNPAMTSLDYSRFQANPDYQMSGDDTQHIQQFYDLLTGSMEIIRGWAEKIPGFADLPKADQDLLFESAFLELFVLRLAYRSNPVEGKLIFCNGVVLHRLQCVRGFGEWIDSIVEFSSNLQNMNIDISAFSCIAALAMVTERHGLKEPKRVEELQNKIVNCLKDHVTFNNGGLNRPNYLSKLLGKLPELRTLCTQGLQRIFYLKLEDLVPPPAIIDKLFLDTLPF
T2 sequence (P19793 whole entry partner): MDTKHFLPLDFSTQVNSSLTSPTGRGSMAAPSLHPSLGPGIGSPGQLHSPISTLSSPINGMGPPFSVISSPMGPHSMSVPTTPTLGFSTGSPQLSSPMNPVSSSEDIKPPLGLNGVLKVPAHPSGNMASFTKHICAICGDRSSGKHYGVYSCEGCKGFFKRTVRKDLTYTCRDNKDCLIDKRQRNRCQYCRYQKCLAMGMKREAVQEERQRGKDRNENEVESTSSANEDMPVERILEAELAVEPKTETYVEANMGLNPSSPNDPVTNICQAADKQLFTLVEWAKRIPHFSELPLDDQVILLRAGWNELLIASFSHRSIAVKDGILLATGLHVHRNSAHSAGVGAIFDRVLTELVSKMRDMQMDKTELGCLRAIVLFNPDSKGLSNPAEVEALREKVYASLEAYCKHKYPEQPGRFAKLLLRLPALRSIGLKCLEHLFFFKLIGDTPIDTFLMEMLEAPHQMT
Method: Activation of full-length human Nurr1 was studied in transiently transfected HEK293T cells using the reporter plasmids pFR-Luc-NBRE[14], pFR-Luc-POMC[14] or pFR-Luc-DR5[14] each containing one copy of the respective human Nurr1 response element NBRE Nl3, NurRE, or DR5. […] After 24 h, the medium was changed to Opti-MEM without supplements, and cells were transiently transfected using Lipofectamine LTX reagent (Invitrogen) according to the manufacturer’s protocol. Five hours after transfection, cells were incubated with the test compounds in Opti-MEM supplemented with penicillin (100 U/mL), streptomycin (100 μg/mL) and 0.1% DMSO for 16 h before luciferase activity was measured using the Dual-Glo Luciferase Assay System (Promega) according to the manufacturer’s protocol on a Tecan Spark luminometer (Tecan Deutschland GmbH). Firefly luminescence was divided by Renilla luminescence and multiplied by 1000 resulting in relative light units (RLU) to normalize for transfection efficiency and cell growth. Fold activation was obtained by dividing the mean RLU of the test compound by the mean RLU of the untreated control. All samples were tested in at least three biologically independent experiments in duplicates. For dose-response curve fitting and calculation of EC50 values, the equation “[Agonist] vs. response -- Variable slope (four parameters)” was used in GraphPad Prism (version 7.00, GraphPad Software).

HEK293T cells = test: WST-8 cytotoxicity assay, HEK293T; assay type: cell-based, human; conditions: for toxicity (WST-8): HEK293T cells, 24 h
Method: Each sample was prepared in four biologically independent repeats. After incubation for 24 h, the medium was refreshed and 10% water-soluble tetrazolinum salt (Cell Counting Kit-8, MedChemExpress) was added to assess metabolic activity. After 4 h, absorbance was measured at 450 nm using a Tecan Spark Cyto instrument (Tecan).

Microsomal stability = assay type: in vitro ADME, rat; conditions: for AUC x10^5 (LC-MS peak area of 36 and its demethylated metabolites): incubation of 36 with rat liver microsomes, listed as 36-N(CH3)2
Method: To determine microsomal stability, test compounds (10 μM) were incubated in 100 mM potassium phosphate buffer at pH 7.4 (total volume of 100 µL) containing 0.5 mg/mL male rat liver microsomes (Sprague-Dawley, no. M9066, Merck KGaA, Darmstadt) and 1 mM NADPH for 0, 15, 30, or 60 min. At the end of the incubation time, microsomal activity was terminated by the addition of 500 µL MeCN and subsequent centrifugation at 1700 g for 5 min. A reaction mixture containing heat-inactivated microsomes (95 °C, 10 min) was prepared as a control for each compound. 5 µL supernatant of each sample was analyzed and the remaining concentrations of the respective test compounds at each time point were determined by LC-MS/MS on an API-3200-QTrap (Sciex) with an Agilent Technologies 1100 series setup including a binary pump (G1311A), a degasser (G1322A), and a Shimadzu SIL 20 A HT autosampler under the control of Analyst 1.6 (Sciex). A XBridge BEH C18 (3.5 µm, 150 mm×3 mm, Waters, protected with a 0.5 µm frit) stationary phase was used in combination with a gradient method starting with 0.1% formic acid in water (A) and MeCN (B) as mobile phase (A:B = 80:20) for 6 min going to A: B = 50:50 after 8 min. 5 µL of supernatant diluted in mobile phase starting conditions was loaded onto the column, separated at a flow rate of 400 µL/min, and detected and quantified per Area of MRM (multiple reaction monitoring) with the following transitions: m/z 381.797/145.000 (34); m/z 395.125/158.200 (36); m/z 409.822/131.000 (41); m/z 407.838/171.100 (42).

For `Cc1nc2c(Cl)cccn2c1NC(=O)c1ccc(-c2ccccc2)[nH]1` [Compound 29, N-(8-Chloro-2-methylimidazo[1,2-a]pyridin-3-yl)-5-phenyl-1H-pyrrole-2-carboxamide], the “SOD2 mRNA induction (mean)” value ([1]; 10 µM) was 1.131 fold, the “TH mRNA induction (mean)” value ([1]; 10 µM) was 1.042 fold and the “VMAT2 mRNA induction (mean)” value ([1]; 10 µM) was 0.9124 fold. For the same compound, the “Kd (Nurr1 LBD)” value (Nurr1 LBD) was “no binding^b”, the “EC50(DR5)” value ([2]; Nurr1-RXR heterodimer, HEK293T, without bexarotene) was “no activation (10 µM)” and the “toxicity (WST-8)” value (HEK293T cells) was “inactive (10 µM)”.

With `Cc1nc2c(Cl)cccn2c1NC(=O)c1ccc(-c2ccc(N(C)C)cc2)o1` [Compound 36, N-(8-Chloro-2-methylimidazo[1,2-a]pyridin-3-yl)-5-(4-(dimethylamino)phenyl)furan-2-carboxamide] the “metabolism by rat liver microsomes (route)” value (Microsomal stability) was “almost exclusively degraded by demethylation of the dimethylamino motif”, the “AUC x10^5 (LC-MS peak area of 36 and its demethylated metabolites)” value (Microsomal stability; time 0 min) was 7.35 x10^5 and 8.16 x10^5 and 6.56 x10^5 and 7.96 x10^5 and the “AUC x10^5 (LC-MS peak area of 36 and its demethylated metabolites)” value (Microsomal stability; time 15 min) was 1.47 x10^5 and 1.4 x10^5 and 1.5 x10^5 and 1.61 x10^5. For the same compound, the half-life at 10 µM (Microsomal stability; male, Sprague-Dawley, pH 7.4, rat liver microsomes, 10 µM, LCMS) was 6.3 ± 0.3 min, the “SOD2 mRNA induction (mean)” value ([1]; 0.1 µM) was 1.308 fold and the “TH mRNA induction (mean)” value ([1]; 0.1 µM) was 1.414 fold. The “VMAT2 mRNA induction (mean)” value ([1]; 0.1 µM) was 1.925 fold, the “SOD2 mRNA induction (mean)” value ([1]; 0.3 µM) was 1.894 fold and the “TH mRNA induction (mean)” value ([1]; 0.3 µM) was 1.603 fold. For the same compound, the “VMAT2 mRNA induction (mean)” value ([1]; 0.3 µM) was 1.791 fold, the Kd (Nurr1 LBD) was 170 nM and the EC50 ([2]; EC50(DR5) [+0.1 µM BEX], Nurr1-RXR heterodimer, in presence of 0.1 µM bexarotene) was 32 nM. The “factor of potency enhancement by bexarotene (DR5)” value ([2]; EC50 with 0.1 µM BEX vs without) was greater than 5, the EC50 ([2]; Nurr1-RXR heterodimer, HEK293T, without bexarotene, read-out: EC50(DR5)) was 165 ± 4 nM and the “toxicity (WST-8)” value (HEK293T cells) was “no toxic effect; also recorded: non-toxic; also recorded: inactive (10 µM)”. For the same compound, the “rel. absorbance (450 nm)” value (HEK293T cells; HEK293T, 10 µM, WST-8, vs DMSO ctrl) was 85% and 95% and 80%.
